From patent publication US7071188B2 (priority 2001, dated 2006)

What was measured:
[1] = system: natural disease pressure on corn variety N58-D1; assay: Seed treatment test for field corn and sweet corn, no inoculation, natural disease pressure (Example 2); format: in vivo; settings: rates gai/100 kg: Apron XL 3LS 1, Maxim XL 3.5, CGA-301940 2.5, CAPTAN 55 + Allegiance-FL 2
From the text: (§1) Seed Treatment Test for Field Corn and Sweet Corn

Fusarium (FFUSARGRAMI) = assay: Seed treatment test for field corn and sweet corn, in-furrow Fusarium inoculation (Example 1); format: in vivo, Fusarium on corn variety H-8874RR; settings: rates gai/100 kg: Apron XL 3LS 1, Maxim XL 3.5, CGA-301940 2.5, CAPTAN 55 + Allegiance-FL 2
From the text: as §1

## CO/C=C(/C(=O)OC)c1ccccc1Oc1cc(Oc2ccccc2C#N)ncn1 [CGA-301940, Azoxystrobin]
[1]; 33 DAP, vs Check (non-inoculated)
  Stand Count percent increase (33 DAP): 4.5%
[1]; 33 DAP
  Stand Count (No Plants/Plot) 33 DAP: 46.5c No Plants/Plot
[1]; 49 DAP, vs Check (non-inoculated)
  Stand Count percent increase (49 DAP): 6.0%
[1]; 49 DAP
  Stand Count (No Plants/Plot) 49 DAP: 52.8c No Plants/Plot
Fusarium (FFUSARGRAMI); 27 DAP, vs Check (inoculated)
  Stand Count percent increase (27 DAP): −10.3%
Fusarium (FFUSARGRAMI); 27 DAP
  Stand Count (No Plants/Plot) 27 DAP: 13.0b No Plants/Plot
Fusarium (FFUSARGRAMI); 47 DAP, vs Check (inoculated)
  % Vigor percent increase (47 DAP): 6.6%
  Stand Count percent increase (47 DAP): 9.8%
Fusarium (FFUSARGRAMI); 47 DAP
  % Vigor 47 DAP: 80.0a %
  Stand Count (No Plants/Plot) 47 DAP: 42.3d No Plants/Plot
